Assay results taken from PMC8691750, “Euphorbia Factor L2 ameliorates the Progression of K/BxN Serum-Induced Arthritis by Blocking TLR7 Mediated IRAK4/IKKβ/IRF5 and NF-kB Signaling Pathways” (Frontiers in Pharmacology, 2021).

How the values were obtained:
[1] = test system: TLR7-mediated IRAK4/IKKβ/IRF5 signaling pathway; experiment: Western blot, IRAK4/IKKβ/IRF5 in R837-stimulated RAW264.7 cells; type: cell-based, mouse; settings: R837-stimulated RAW264.7
Experimental: RAW264.7 cells (2×10^6 cells/well) were plated into 6-well plates and then incubated at 37°C in 5% CO2 for 24 h. After incubated with various concentrations of EFL2 (1, 5 and 10 µM) for 1 h, cells were then stimulated by R837 (20 μg/ml) for 30 min. Cell lysates were prepared by direct lysis in 20 µL IP buffer (Beyotime Biotechnology, Shanghai, China). After obtaining the whole cell extracts, the cytosolic and nuclear were seperated using Nuclear and Cytoplasmic Protein Extraction Kit (Beyotime Biotechnology, Shanghai, China). BCA Protein Assay Kit (Beyotime Biotechnology, Nantong, China) was applied to determine the protein concentrations. The bands corresponding to p- IKKα/β, IKKα/β, p-IκBα, IκBα, p-p65, p65, p-IRAK4, IRAK4, p-IKKβ, IKKβ, p-IRF5, IRF5, β-actin and Lamin B were visualized using a Western Blot Detection Chemiluminescence Kit (Merck). Protein extracted from the total lysates/cytoplasm and nucleus was quantified in relation to β-actin and Lamin B bands, respectively.
The antibodies used in the experiments were as follows: rabbit anti-mouse IKKα/β polyclonal antibody (1:1,000, Abways, China), rabbit anti-mouse IκBα polyclonal antibody (1:1,000, Abgent, China), rabbit anti-mouse p65 polyclonal antibody (1:1,000, Abgent, China), rabbit anti-mouse phosphorylated IKKα (Ser176)/β (Ser177) (1:1,000, Abways, China), rabbit anti-mouse phosphorylated IκBα (1:1,000, Abcam, United States), rabbit anti-mouse phosphorylated p65 (1:1,000, Abcam, United States), rabbit anti-mouse IRAK4 polyclonal antibody (1:1,000, Proteintech, United States), rabbit anti-mouse phosphorylated IRAK4 (Thr345/Ser346) (1:1,000, Affinity, United States), rabbit anti-mouse IKKβ polyclonal antibody (1:1,000, Abbkine, United States), rabbit anti-mouse phosphorylated IKKβ (Ser177) (1:1,000, Abways, China), rabbit anti-mouse IRF5 polyclonal antibody (1:1,000, Immunoway, United States), rabbit anti-mouse phosphorylated IRF5 (Ser437) (1:1,000, Affinity, United States), anti-mouse actin monoclonal antibody (1:20,000, Transgen, China) and rabbit anti-mouse LaminB monoclonal antibody (1:5,000, Abways, China).

[2] = test system: TLR7 (R837) induced cytokine production in PBMCs; experiment: ELISA of IL-1β and IL-6 in supernatant of R837 stimulated PBMCs; type: cell-based, human; settings: R837-stimulated human PBMCs
Experimental: RAW264.7 cells, a mouse macrophage cell line, were cultured in DMEM medium containing 10% fetal bovine serum (FBS), 1% penicillin-streptomycin and maintained at 37 °C in 5% CO2 humidified air. Bone marrow-derived macrophages (BMDMs) generation was performed as following description. In brief, bone marrow cells were harvested from tibias and femurs of C57BL/6 mice and differentiated for 7 days in DMEM medium supplemented with 10% FBS, 1% penicillin-streptomycin and 50 ng/ml M-CSF. For human peripheral blood mononuclear cells (PBMCs) preparation, 5 ml peripheral venous blood was obtained from healthy donors in West China Hospital. PBMCs were isolated with Human Lymphocyte Separation Medium (LTS1077, Tian Jing, China) according to the manufacturer’s instructions. The experimental protocols were performed according to the approved guidelines established by the Institutional Human Research Subject Protection Committee of the Ethics Committee of West China Hospital, Sichuan University, China.
RAW264.7 cells (5×10^5/ml), BMDMs (5×10^5/ml) and PBMCs (2×10^6/ml) were plated in 96-well plates and incubated overnight. […]
IL-4, IL-17A and TNF-α in sera from different group mice were measured using CBA Multiplex kit (BD, United States). The concentrations of IL-1β and IL-6 in serum or supernatant were detected by ELISA Kit (MULTI SCIENCES, China) according to the manufacturers’ instructions.

[3] = test system: synovial hyperplasia and articular inflammatory cells infiltration in knee joints; experiment: Histological assessment (H&E) of knee joints of STA mice; type: in vivo, C57BL/6 mice
Experimental: K/BxN serum was collected from K/BxN mice at 8 weeks of age, pooled, aliquoted and stored at -20 °C. K/BxN serum-transfer arthritis (STA) model was induced by intraperitoneal (i.p.) application of 150 μL of serum at day 0. Clinical score for arthritis severity was assessed using a 0–4 point scale for each paw at various time points (0–16 total score) as described previously ([Luo et al., 2011]). 8-week old male C57BL/6 mice were purchased from Dashuo Animal Center (China, Chengdu), maintained at 25°C, and exposed to 12-h light and dark cycles. Mice were fed with standard laboratory chow and water with 1 week of acclimatization. Naive mice were used as the control group. Except the control mice, all mice were i. p. injected with 150 μL of serum, then randomly divided into the following groups and treated with different compounds daily for the consecutive 8 days: 1) STA group; 2) Solvent control group, mice were gavaged with the solvent; 3) Dexamethasone (DEX) group, mice were gavaged with 30 mg/kg DEX; 4) EFL2 group 1, mice were gavaged with 40 mg/kg EFL2; 5) EFL2 group 2, mice were intraperitoneally injected with 15 mg/kg EFL2; 6) EFL2 group 3, […] were intraperitoneally injected with 40 mg/kg EFL2. […] All animal experiments were conducted in accordance with ethical regulation for animal care and use in China.
The left knee joints were removed on day 13 post STA and fixed in 4% formaldehyde overnight at 4°C. The tissues were decalcified in EDTA and sectioned after embedding in paraffin. 5 μm sections were deparaffinized with xylene, re-hydrated with 100, 95 and 80% ethanol and then stained with hematoxylin and eosin (H&E). Histopathological changes in the knee joints were measured using a semiquantitative scoring system (0–4 scale) to assess synovial hyperplasia and articular inflammatory cells infiltration as previously described ([Yamanishi et al., 2002]).

For `C=C1C(OC(=O)c2ccccc2)CC2C(C=C(C)C(=O)C3(OC(C)=O)CC(C)C(OC(=O)c4ccccc4)C3C1OC(C)=O)C2(C)C` (stereo not shown) [EFL2, Euphorbia factor L2], which “IRF5 translocation (cytoplasm to nucleus)” value ([1]; EFL2 at 5 and 10 μM, also immunofluorescence) is on record?
The value was “effectively blocked”.

And the “phosphorylation of IKKβ” value ([1]; EFL2 pretreatment 1, 5, 10 μM)?
Its value is “significantly suppressed”.

What about the “phosphorylation of IRAK4” value ([1]; EFL2 pretreatment 1, 5, 10 μM) of the same compound?
Its value is “significantly suppressed”.

What about the “phosphorylation of IRF5” value ([1]; EFL2 pretreatment 1, 5, 10 μM) of the same compound?
The value was “significantly suppressed”.

What about the “suppressive effect on IL-1β production compared with IL-6” value [2] of the same compound?
The value was “prior to that on IL-6”.

And the “inflammatory cells infiltration and synovium hyperplasia in joints” value ([3]; EFL2 15 mg/kg i.p.)?
Its value is “only partially reduced”.

And the “inflammatory status and inflamed synovium in joints” value ([3]; EFL2 40 mg/kg i.p.)?
Its value is “significantly inhibited”.
